{"source": "patent US6172066A", "about": "“Dihydropyrimidines and uses thereof” (Synaptic Pharmaceutical Corporation, priority 1997, dated 2001)", "origin": "cited, not measured here", "key": {"[1]": {"conditions": "cited from earlier work"}, "[2]": {"conditions": "in addition to its antihypertensive effects; cited from earlier work"}}, "note": "Like-named read-outs stand apart in the source and are kept apart here."}
{"smiles": "COc1cc2nc(N3CCN(C(=O)c4ccco4)CC3)nc(N)c2cc1OC", "note": "[prazosin]", "values": [{"measurement": "side effects in BPH treatment", "setting": "[1]; in vivo", "value": "untoward side effects"}, {"measurement": "usefulness in treating BPH", "setting": "[1]; patients with BPH", "value": "useful for treating BPH"}]}
{"smiles": "COc1cc2nc(N3CCN(C(=O)C4CCCO4)CC3)nc(N)c2cc1OC", "note": "(stereo not shown) [terazosin]", "values": [{"measurement": "side effects in BPH treatment", "setting": "[1]; patients with BPH", "value": "untoward side effects"}, {"measurement": "usefulness in treating BPH", "setting": "[1]; patients with BPH", "value": "useful for treating BPH"}]}
{"smiles": "Clc1cccc(Cl)c1N=C1NCCN1", "note": "[clonidine]", "values": [{"measurement": "side effects of clonidine", "setting": "[2]", "value": "dry mouth and sedation"}]}
{"smiles": "CC(COc1ccccc1)N(CCCl)Cc1ccccc1", "note": "(stereo not shown) [phenoxybenzamine]", "values": [{"measurement": "side effects in BPH treatment", "setting": "[1]; patients with BPH", "value": "significant side effects such as dizziness and asthenia"}, {"measurement": "usefulness in treating BPH", "setting": "[1]; patients with BPH", "value": "useful in relieving the symptoms of BPH"}]}
